Experimental data reported in patent US20130156791A1, “METHODS AND PHARMACEUTICAL COMPOSITIONS FOR THE TREATMENT OF HIV-1 INFECTIONS” (priority 2010, published 2013).

Assays:
[1] = system: HIV-1 envelope mediated hemifusion/fusion of HeLa Env^+ and HeLa CD4^+ cells; experiment: Hemifusion and cell-cell fusion assays, HeLa Env+ / HeLa CD4+ coculture; format: cell-based, human; settings: absence or presence of 70 mM KCl for 3 h; 5 μM AMD3100 (Fig. 4d)
[2] = system: PHA/IL-2 stimulated human lymphoblasts infected with HIVNDK; experiment: Plasma membrane depolarization after HIVNDK infection (DiBac4(3), flow cytometry); format: cell-based; settings: 1 hour of HIVNDK infection (Fig. 4e)
[3] = system: CD4^+CXCR4^+ cells infected with HIVNL43
CD4^+CXCR4^+ cells = experiment: Plasma membrane depolarization of uninfected cells (DiBac4(3), flow cytometry); format: cell-based, human; settings: 70 mM KCl for 3 h (Fig. 4b,c)
[4] = system: HIVNDK infected (PHA/IL-2 stimulated) lymphoblasts; format: cell-based, human; settings: HIVNDK (Fig. 6d)
HIVBaL = format: cell-based, HIV-1; settings: activated T-lymphoblasts (Fig. 2a, S2a)
HIVNDK = format: cell-based, HIV-1; settings: activated T-lymphoblasts (Fig. 2a, S2a)
[5] = system: CD4^+CXCR4^+ target cells; format: cell-based, human
Protocol: Supplementary FIG. 1 Pannexin-1-dependent ATP release during HIV-1 infection and during HIV-1 Env-mediated fusion. (a) Effect of apyrase and AMD3100 on target cell viability. The viability of cells incubated for 3 hours with different concentrations of apyrase or AMD3100 (as indicated) and then infected with HIV-1NL43 for 2 days, was assessed by the MTT (3-[4,5-dimethylthiazol-2-yl]-2,5-diphenyl tetrazolium bromide) assay, as detailed in Methods. (b) Effects of apyrase and AMD3100 on ATP release detected during HIV-1 infection. […] After 2 hours of infection, ATP release was determined as described in Methods. […] Cell viability in c was assessed as in a (mean±s.e.m; n=3; *P<0.05). Fusion between HIV-1 Env-expressing cells (that also express Tat protein) and CD4^+CXCR4^+ target cells (that contain Tat-inducible β-galactosidase) was determined by measuring β-galactosidase (β-Gal) activity (d), as described in Methods. (e) Effects of Pannexin-1 knockdowns on HIV-1 Env-mediated fusion, as described in (c). Data in (a), (b), (c), (d) and (e) were determined in 3 independent experiments (mean±s.e.m; *P<0.05).

[6] = system: CD4/CXCR4-expressing cells cocultured with Env-expressing cells; experiment: HIV-1 envelope mediated conjugate formation (actin polymerization between two interacting cells); settings: coculture of Env-expressing and CD4/CXCR4-expressing cells (Fig. 1d)
Protocol: Error bars indicate SD of 3 independent determinations (means±SD; *P<0.05). (d) Effect of ATP depletion by apyrase on HIV-1 envelope mediated actin polymerization. Actin polymerization between two interacting cells was determined in 3 independent experiments (means±SEM; *P<0.05) by fluorescent microscopy (e) Localization of pannexin-1 at the contact site between primary HIV-1-infected lymphoblasts (green) and primary uninfected lymphoblasts, visualized by confocal microscopy.
HeLa cells stably transfected with the Env gene of HIV-1 LAI/IIIB (HeLa Env) and HeLa cells transfected with CD4 (HeLa CD4) were cultured alone or together at a 1:1 ratio in Dulbecco's modified Eagle's medium supplemented with 10% FCS, 2 mM L-glutamine and penicillin/streptomycin (Invitrogen) in the absence or in presence of tested molecules.

HIVNL43 = experiment: Target cell infectivity, Tat-inducible β-galactosidase reporter; format: cell-based, HIV-1; settings: HIVNL43, MOI 1, β-Gal reporter, 24 h after infection

Row | Molecule | fusion of Env+ and CD4+/CXCR4+ cells [1] | plasma membrane depolarization induced by HIV-1 infection [2] | CD4+ T cell depletion / death of activated CD4+ T lymphoblasts (7-AAD uptake) [4] | viral infection of lymphoblasts (intracellular p24 antigen) [4] | replication of R5-tropic HIV (HIVBaL) | replication of X4-tropic HIV (HIVNDK) | further results
1 | c1cc(CN2CCCNCCNCCCNCC2)ccc1CN1CCCNCCNCCCNCC1 [AMD3100] | reduced | abolished |  |  |  |  | ATP release during HIV-1 infection [3]: prevented ATP release
2 | [Cl-].[K+] [KCl] | enhanced the fusion |  |  |  |  |  | plasma membrane depolarization (CD4^+CXCR4^+ cells): strongly induced membrane depolarization
3 | Cc1nc(N=Nc2ccc(S(=O)(=O)O)cc2S(=O)(=O)O)c(COP(=O)(O)O)c(C=O)c1O [PPADS] |  |  | reduces | reduces viral infection | blocked the replication | blocked the replication | 
4 | Cc1ccc(C(=O)Nc2ccc(S(=O)(=O)O)c3cc(S(=O)(=O)O)cc(S(=O)(=O)O)c23)cc1NC(=O)c1cccc(NC(=O)Nc2cccc(C(=O)Nc3cc(C(=O)Nc4ccc(S(=O)(=O)O)c5cc(S(=O)(=O)O)cc(S(=O)(=O)O)c45)ccc3C)c2)c1 [suramin] |  |  | reduces | reduces viral infection | blocked the replication | blocked the replication | 
5 | Nc1ncnc2c1ncn2[C@@H](C=O)O[C@@H](C=O)COP(=O)(O)OP(=O)(O)OP(=O)(O)O [OxATP, oxidized ATP] |  |  |  |  | blocked the replication | blocked the replication | 
6 | apyrase |  | abolished |  |  |  |  | toxicity / target cell viability [5]: non-toxic; conjugate formation revealed by actin polymerization between two interacting cells [6]: abolished conjugate formation; HIV-1 infection (target cell infectivity) (HIVNL43): prevented HIV-1 infection
